The text below walks through data of patent US20090270496A1, “ANTIFUNGAL COMPOUNDS” (priority 2007, published 2009).

Data set [1] relates to cytoplasmic Ca2+ in S. cerevisiae cells (FY70 [pEVP11/AEQ]). Description: Aequorin luminescence, yeast cytoplasmic Ca2+. Further: monitored 3.5 min. The following applies: 50 μM added at t=30 sec, monitored […]. The class given is cell-based, Saccharomyces cerevisiae.
Experimental: Cells were transformed with pEVP11/AEQ, which constitutively expresses apoaequorin directed to the cytoplasm (Batiza et al., 1996) Transformed cells were grown to mid-exponential phase in SD-leu to maintain the plasmid. 1.5×10^7 cells were pelleted and resuspended in fresh SD-leu medium containing 5.9 μM coelenterazine for 1 hour to allow the cofactor to diffuse into cells and bind the apoaequorin. Cells were pelleted again and resuspended in fresh SD-leu (“SD” buffer) and 2.5×10^6 cells per well aliquoted to a microtiter plate for luminescence measurement. Luminescence was measured in an EG&G Berthold luminometer using Winglow monitoring and analysis software.
S. cerevisiae cells were prepared for aequorin assays as just described.
In a further data set the target is Gi2 (Homo sapiens, UniProt P04899). The following applies: reconstituted Gi2, in vitro; read-out: EC50, activation of GTPase; cited from earlier work.
For the next data set, the system named is HL-60 cells. As to conditions: in the presence but not in the absence of extracellular Ca2+; cited from earlier work.
For data set [2] the following is noted: cited from earlier work.
The conditions of data set [3]: during chronic treatment; cited from earlier work.

Sequence of Gi2 (P04899 2-355 limits assumed): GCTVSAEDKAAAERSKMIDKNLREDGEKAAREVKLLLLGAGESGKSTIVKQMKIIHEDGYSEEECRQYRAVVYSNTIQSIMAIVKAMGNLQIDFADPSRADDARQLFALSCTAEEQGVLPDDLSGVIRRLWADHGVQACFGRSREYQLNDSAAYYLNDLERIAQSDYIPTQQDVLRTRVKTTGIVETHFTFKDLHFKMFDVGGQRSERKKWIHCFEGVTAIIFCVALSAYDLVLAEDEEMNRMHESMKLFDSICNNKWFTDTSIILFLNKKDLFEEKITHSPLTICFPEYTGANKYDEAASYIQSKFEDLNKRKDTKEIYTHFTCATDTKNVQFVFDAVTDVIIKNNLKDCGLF

What is called EC50 is the concentration at which the effect is half-maximal. Regarding `CCCCc1oc2ccccc2c1C(=O)c1cc(I)c(OCCN(CC)CC)c(I)c1` [Amiodarone, amiodarone], the “increase in RLUs (cytoplasmic Ca2+)” value in data set [1] was “immediate and very large increase”; in data set [1] (listed as amiodarone) it was “immediate and huge increase”. The half-maximal effective concentration (EC50) at Gi2 is 50 µM. In addition, in the data set on HL-60 cells, the “cytosolic Ca2+ concentration” value was “increased”. Further, the “ataxia, patients affected” value in data set [2] (especially during loading doses) is recorded as 20-40%. For the same compound, the “pulmonary fibrosis or pneumonitis fatal, cases” value in data set [2] (human, in vivo) was “about 10%”.
`CCCCc1oc2ccccc2c1C(=O)c1cc(I)c(OCCNCC)c(I)c1` [desethylamiodarone]: the “plasma ratio of metabolite to parent compound” value in data set [3] is reported as “approximately one”.
